Reference: publication PMC6399351, “Cationic Intrinsically Disordered Antimicrobial Peptides (CIDAMPs) Represent a New Paradigm of Innate Defense with a Potential for Novel Anti-Infectives” (Scientific Reports, 2019)
In brackets after ≈: the same amount, converted by molar mass. Like-named read-outs stand apart in the source and are kept apart here. Square brackets hold non-standard residues; d marks the D form. Ends that are not written are not given here. Peptide text beside a SMILES is read from it. * marks the point of attachment. Palmitoyl = CCCCCCCCCCCCCCCC(=O)*; Myristoyl = CCCCCCCCCCCCCC(=O)*; dOrn = NCCC[C@@H](N)C(=O)O; Orn = NCCC[C@H](N)C(=O)O

What was measured:
[1] = tested on: Acinetobacter baumannii ATCC 19606; experiment: CO-ADD MIC, broth microdilution (CLSI); assay type: cell-based; conditions: Mueller–Hinton broth, 5 × 10^5 CFU/mL, 18 h 37 °C, by CO-ADD
Text: (§1) They were defined as the lowest peptide
(§2) Further details of the screening

[2] = tested on: Pseudomonas aeruginosa ATCC 27853; experiment: CO-ADD MIC, broth microdilution (CLSI); assay type: cell-based; conditions: Mueller–Hinton broth, 5 × 10^5 CFU/mL, 18 h 37 °C, by CO-ADD
Text: as §1, §2

[3] = tested on: Candida albicans ATCC 90028; experiment: CO-ADD MIC, antifungal assay (CLSI); assay type: cell-based; conditions: Yeast Nitrogen Base broth, 24 h 35 °C, by CO-ADD
Method: (§3) Fungi strains were cultured for 3 days on Yeast Extract-Peptone Dextrose (YPD) agar at 30 °C. A yeast suspension of 1 × 10^6 to 5 × 10^6 cells/mL (as determined by OD530) was prepared from five colonies. These stock suspensions were diluted with Yeast Nitrogen Base (YNB) broth to a final concentration of 2.5 × 10^3 CFU/mL. […] Plates were covered and incubated at 35 °C for 24 h without shaking.

[4] = tested on: Cryptococcus neoformans ATCC 208821; experiment: CO-ADD MIC, antifungal assay (CLSI); assay type: cell-based; conditions: Yeast Nitrogen Base broth, 24 h 35 °C, by CO-ADD
Method: as §3

E. coli ATCC 25922 = experiment: CO-ADD MIC, broth microdilution (CLSI); assay type: cell-based, Escherichia coli; conditions: Mueller–Hinton broth, 5 × 10^5 CFU/mL, 18 h 37 °C, by CO-ADD
Text: as §1, §2

S. aureus ATCC 6538 = conditions: for LD90 / LD100: CFU assay
[5] = tested on: Klebsiella pneumonia ATCC 700603; conditions: MDR strain; CLSI, Mueller–Hinton broth, 5 × 10^5 CFU/mL, 18 h 37 °C, by CO-ADD
[6] = tested on: Staphylococcus aureus ATCC 43300; conditions: MRSA; CLSI, Mueller–Hinton broth, 5 × 10^5 CFU/mL, 18 h 37 °C, by CO-ADD
P. aeruginosa ATCC 10145 = conditions: CFU assay, 10 mM NaP, pH 5.5, 0.25% glucose
[7] = 10 mM NaP, pH 5.5, 0.25% glucose
[8] = 10 mM NaP, pH 7.0, 0.25% glucose
[9] = 10 mM NaP, pH 7.2, 0.25% glucose

Molecule	LD90 (S. aureus ATCC 6538; [7])	LD90 (P. aeruginosa ATCC 10145)	LD100 (P. aeruginosa ATCC 10145)	LD100 (S. aureus ATCC 6538; [7])	other results
N=C(N)NCCC[C@H](NC(=O)[C@H](CCCNC(=N)N)NC(=O)[C@H](CS)NC(=O)[C@H](CCCNC(=N)N)NC(=O)[C@H](Cc1c[nH]cn1)NC(=O)[C@H](CO)NC(=O)[C@H](CCCNC(=N)N)NC(=O)[C@H](CS)NC(=O)[C@H](CS)NC(=O)[C@H](CCCNC(=N)N)NC(=O)[C@H](Cc1c[nH]cn1)NC(=O)[C@H](Cc1c[nH]cn1)NC(=O)[C@@H](N)CO)C(=O)O [LCE-3B56-68] (H-SHHRCCRSHRCRR-OH)	0.075 µg/mL				Minimal inhibitory concentration (MIC) [1]: >32 µg/mL; Minimal inhibitory concentration (MIC) [2]: >32 µg/mL; Minimal inhibitory concentration (MIC) [3]: >32 µg/mL; Minimal inhibitory concentration (MIC) [4]: 8 µg/mL (≈ 4.72 µM); Minimal inhibitory concentration (MIC) (E. coli ATCC 25922): >32 µg/mL; LD90 (S. aureus ATCC 6538; value in molar units): 44 nM; Minimal inhibitory concentration (MIC) [5]: >32 µg/mL; Minimal inhibitory concentration (MIC) [6]: 32 µg/mL (≈ 18.9 µM)
CCCCCCCCCCCCCC(=O)NCC(=O)N[C@@H](CCCNC(=N)N)C(=O)N[C@@H](Cc1c[nH]cn1)C(=O)NCC(=O)N[C@@H](CO)C(=O)NCC(=O)N[C@@H](CC(C)C)C(=O)NCC(=O)N[C@@H](Cc1c[nH]cn1)C(=O)N[C@@H](CO)C(=O)N[C@@H](CO)C(=O)N[C@@H](CO)C(=O)N[C@@H](Cc1c[nH]cn1)C(=O)NCC(=O)N[C@@H](CCC(N)=O)C(=O)N[C@@H](Cc1c[nH]cn1)C(=O)NCC(=O)N[C@@H](CO)C(=O)NCC(=O)N[C@@H](CO)C(=O)NCC(=O)N[C@@H](CCCNC(=N)N)C(=O)O [Myr-HR 1-18] (Myristoyl-GRHGSGLGHSSSHGQHGSGSGR-OH; C-terminus assumed)	9.38 µg/mL	0.075 µg/mL	0.3 µg/mL	75 µg/mL	LD90 (S. aureus ATCC 6538; 10 mM NaP, pH 7.3, 1% TSB): 18.75 µg/mL; LD100 (S. aureus ATCC 6538; 10 mM NaP, pH 7.3, 1% TSB): 75 µg/mL
CCCCCCCCCCCCCCCC(=O)NCC(=O)N[C@H](CCCCN)C(=O)NCC(=O)N[C@H](CCCCN)C(=O)O [Pal-(D)-GK4] (Palmitoyl-G[dK]G[dK]-OH; C-terminus assumed)	4.7 µg/mL	1.18 µg/mL	4.7 µg/mL	9.375 µg/mL	
CCCCCCCCCCCCCCCC(=O)NCC(=O)N[C@H](CCCN)C(=O)NCC(=O)N[C@H](CCCN)C(=O)O [Pal-(D)-GO4] (Palmitoyl-G[dOrn]G[dOrn]-OH; C-terminus assumed)	9.38 µg/mL	1.18 µg/mL	9.38 µg/mL	18.75 µg/mL	
CCCCCCCCCCCCCCCC(=O)NCC(=O)N[C@H](CCCNC(=N)N)C(=O)NCC(=O)N[C@H](CCCNC(=N)N)C(=O)O [Pal-(D)-GR4] (Palmitoyl-G[dR]G[dR]-OH; C-terminus assumed)	18.75 µg/mL	18.75 µg/mL	150 µg/mL	37.5 µg/mL	
CCCCCCCCCCCCCCCC(=O)NCC(=O)N[C@@H](Cc1c[nH]cn1)C(=O)N[C@@H](Cc1c[nH]cn1)C(=O)NCC(=O)NCC(=O)N[C@@H](Cc1c[nH]cn1)C(=O)NCC(=O)NCC(=O)N[C@@H](Cc1c[nH]cn1)C(=O)NCC(=O)N[C@@H](Cc1c[nH]cn1)C(=O)NCC(=O)N[C@@H](Cc1c[nH]cn1)C(=O)O [Pal-GH13] (Palmitoyl-GHHGGHGGHGHGH-OH; C-terminus assumed)	0.3 µg/mL	0.075 µg/mL	0.3 µg/mL	300 µg/mL	LD90 (S. aureus ATCC 6538; [8]): 0.3 µg/mL; LD100 (S. aureus ATCC 6538; [8]): >300 µg/mL; S. aureus ATCC 6538-cidal activity (S. aureus ATCC 6538; pH 7.5, at concentrations >8 µM and <0.1 µM (antibiotic paradox)): complete loss of bactericidal activity
CCCCCCCCCCCCCCCC(=O)NCC(=O)N[C@@H](CCCCN)C(=O)NCC(=O)N[C@@H](CCCCN)C(=O)O [Pal-GK4] (Palmitoyl-GKGK-OH; C-terminus assumed)	4.7 µg/mL		9.375 µg/mL	9.375 µg/mL	
CCCCCCCCCCCCCCCC(=O)NCC(=O)N[C@@H](CCCN)C(=O)NCC(=O)N[C@@H](CCCN)C(=O)O [Pal-GO4] (Palmitoyl-G[Orn]G[Orn]-OH; C-terminus assumed)	9.38 µg/mL	2.35 µg/mL	18.75 µg/mL		
CCCCCCCCCCCCCCCC(=O)N[C@@H](CCCNC(=N)N)C(=O)NCC(=O)N[C@@H](CO)C(=O)N[C@@H](CCCNC(=N)N)C(=O)N[C@@H](CO)C(=O)NCC(=O)N[C@@H](CCC(N)=O)C(=O)N[C@@H](CO)C(=O)N[C@@H](CO)C(=O)N[C@@H](CCCNC(=N)N)C(=O)NCC(=O)N[C@@H](CCC(=O)O)C(=O)N[C@@H](CCCNC(=N)N)C(=O)N[C@@H](CCCNC(=N)N)C(=O)O [Pal-HR-1-11-2H2R-14] (Palmitoyl-RGSRSGQSSRGERR-OH)					Minimal inhibitory concentration (MIC) [1]: 4 µg/mL (≈ 2.2 µM); Minimal inhibitory concentration (MIC) [2]: >32 µg/mL; Minimal inhibitory concentration (MIC) [3]: >32 µg/mL; Minimal inhibitory concentration (MIC) [4]: 8 µg/mL (≈ 4.41 µM); Minimal inhibitory concentration (MIC) (E. coli ATCC 25922): 8 µg/mL (≈ 4.41 µM); Minimal inhibitory concentration (MIC) [5]: >32 µg/mL; Minimal inhibitory concentration (MIC) [6]: 8 µg/mL (≈ 4.41 µM)
CCCCCCCCCCCCCCCC(=O)NCC(=O)N[C@@H](CCCCN)C(=O)N[C@@H](CCCCN)C(=O)NCC(=O)NCC(=O)N[C@@H](CCCCN)C(=O)NCC(=O)NCC(=O)N[C@@H](CCCCN)C(=O)NCC(=O)N[C@@H](CCCCN)C(=O)NCC(=O)N[C@@H](CCCCN)C(=O)O [Pal-K-GR13] (Palmitoyl-GKKGGKGGKGKGK-OH; C-terminus assumed)	0.59 µg/mL	< 0.019 µg/mL	0.15 µg/mL	>300 µg/mL	
CCCCCCCCCCCCCCCC(=O)N[C@@H](CO)C(=O)N[C@@H](Cc1c[nH]cn1)C(=O)N[C@@H](Cc1c[nH]cn1)C(=O)N[C@@H](CCCNC(=N)N)C(=O)N[C@@H](Cc1c[nH]cn1)C(=O)N[C@@H](Cc1ccccc1)C(=O)N[C@@H](CCCNC(=N)N)C(=O)N[C@@H](CO)C(=O)N[C@@H](Cc1c[nH]cn1)C(=O)N[C@@H](CCC(N)=O)C(=O)N[C@@H](CS)C(=O)N[C@@H](CCCNC(=N)N)C(=O)N[C@@H](CCCNC(=N)N)C(=O)O [Pal-LCE-3C55-67] (Palmitoyl-SHHRHFRSHQCRR-OH)					Minimal inhibitory concentration (MIC) [1]: >32 µg/mL; Minimal inhibitory concentration (MIC) [2]: >32 µg/mL; Minimal inhibitory concentration (MIC) [3]: 16 µg/mL (≈ 8.07 µM); Minimal inhibitory concentration (MIC) [4]: 1 µg/mL (≈ 0.504 µM); Minimal inhibitory concentration (MIC) (E. coli ATCC 25922): >32 µg/mL; Minimal inhibitory concentration (MIC) [5]: >32 µg/mL; Minimal inhibitory concentration (MIC) [6]: 32 µg/mL (≈ 16.1 µM)
CCCCCCCCCCCCCCCC(=O)NCC(=O)N[C@@H](CCCN)C(=O)N[C@@H](CCCN)C(=O)NCC(=O)NCC(=O)N[C@@H](CCCN)C(=O)NCC(=O)NCC(=O)N[C@@H](CCCN)C(=O)NCC(=O)N[C@@H](CCCN)C(=O)NCC(=O)N[C@@H](CCCN)C(=O)O [Pal-Orn-GR13] (Palmitoyl-G[Orn][Orn]GG[Orn]GG[Orn]G[Orn]G[Orn]-OH; C-terminus assumed)	0.15 µg/mL	0.075 µg/mL	0.3 µg/mL	18.75 µg/mL	
GRRGSGGGRSSSRGGRGSGSGR [HR 1-18,4H-4R/L-G]	> 300 µg/mL		0.15 µg/mL	> 300 µg/mL	
HAHSGHGQSTQRGSRTAGR [FLG-22082-2100]		0.038 µg/mL			Minimal inhibitory concentration (MIC) [1]: >32 µg/mL; Minimal inhibitory concentration (MIC) [2]: >32 µg/mL; Minimal inhibitory concentration (MIC) [3]: >32 µg/mL; Minimal inhibitory concentration (MIC) [4]: >32 µg/mL; Minimal inhibitory concentration (MIC) (E. coli ATCC 25922): >32 µg/mL; Minimal inhibitory concentration (MIC) [5]: >32 µg/mL; Minimal inhibitory concentration (MIC) [6]: >32 µg/mL
LRHGSGLGHSSSHGQHGSGSGR [HR 1-18-Leu]	300 µg/mL	4.7 µg/mL		> 300 µg/mL	
SRRSSSLSRSSSRSSRSSSSSR [HR 1-18,4H-4R/9G-9S]	150 µg/mL	0.15 µg/mL	1.18 µg/mL	> 300 µg/mL	LD90 (S. aureus ATCC 6538; [9]): 75 µg/mL; LD100 (S. aureus ATCC 6538; [9]): > 300 µg/mL
